Test results reported in article PMC3829888, “A Novel Quantitative Kinase Assay Using Bacterial Surface Display and Flow Cytometry” (PLoS ONE, 2013).
Blank lines part the entries; values can stand above or below the compound they belong to. Residues, ends and D or L forms follow the SMILES beside them.

Columns and labels:
Abl TK = target: T1, Abl TK (Homo sapiens, UniProt P00519); assay: BacKin assay, inhibition and substrate competition (surface-displayed abltide phosphorylation, flow cytometry); assay type: biochemical; conditions: for IC50: 0.5 U/mL Abl kinase, 30 min at 37°C, flow cytometry, biotin-anti-PY/SAPE, average of three independent experiments±SD
T1 construct: purchased Merck Millipore
T1 sequence (P00519 whole entry): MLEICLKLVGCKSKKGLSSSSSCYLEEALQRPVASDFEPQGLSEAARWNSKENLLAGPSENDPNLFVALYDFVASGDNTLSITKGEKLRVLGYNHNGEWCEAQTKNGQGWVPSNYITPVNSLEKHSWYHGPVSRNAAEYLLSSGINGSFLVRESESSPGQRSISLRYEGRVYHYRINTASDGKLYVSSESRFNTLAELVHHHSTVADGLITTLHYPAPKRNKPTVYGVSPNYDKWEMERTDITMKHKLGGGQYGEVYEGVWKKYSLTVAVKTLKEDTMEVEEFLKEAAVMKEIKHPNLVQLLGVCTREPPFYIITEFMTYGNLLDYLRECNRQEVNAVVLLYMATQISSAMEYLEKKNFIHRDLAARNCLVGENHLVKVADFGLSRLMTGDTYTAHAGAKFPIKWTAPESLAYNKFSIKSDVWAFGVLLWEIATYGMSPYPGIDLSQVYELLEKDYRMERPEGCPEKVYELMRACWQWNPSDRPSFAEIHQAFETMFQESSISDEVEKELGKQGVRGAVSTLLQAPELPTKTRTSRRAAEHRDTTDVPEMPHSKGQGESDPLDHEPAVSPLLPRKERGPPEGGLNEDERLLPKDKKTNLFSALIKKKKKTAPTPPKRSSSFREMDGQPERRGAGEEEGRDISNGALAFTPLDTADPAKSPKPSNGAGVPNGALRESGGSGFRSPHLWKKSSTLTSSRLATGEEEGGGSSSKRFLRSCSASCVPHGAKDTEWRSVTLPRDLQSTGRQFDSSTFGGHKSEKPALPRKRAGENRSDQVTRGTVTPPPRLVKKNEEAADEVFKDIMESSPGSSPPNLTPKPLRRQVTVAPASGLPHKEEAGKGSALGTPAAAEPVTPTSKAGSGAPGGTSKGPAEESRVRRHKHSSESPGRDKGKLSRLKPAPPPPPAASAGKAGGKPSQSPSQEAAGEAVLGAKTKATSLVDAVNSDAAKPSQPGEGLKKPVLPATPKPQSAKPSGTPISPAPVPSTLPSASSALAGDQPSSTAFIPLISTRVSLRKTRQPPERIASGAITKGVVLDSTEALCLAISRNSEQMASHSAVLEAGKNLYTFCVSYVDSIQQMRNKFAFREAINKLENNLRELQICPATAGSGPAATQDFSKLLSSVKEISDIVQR

[1] = one U = 1 nmol of phosphate incorporated into 50 µM abltide per minute at 30°C, 100 µM ATP; ref Merck Millipore; cited from earlier work
Procedure: The kinase activity of Bcr-Abl TK is located in the Abl domain (Figure 1). […] The activity of Abl TK was first examined using LC-MS. The time-course for phosphorylation of 60 µM of soluble abltide was followed with 0.5 U/mL Abl TK in kinase buffer (50 mM Tris-HCl, 10 mM MgCl2, 0.1 mM EDTA, 2 mM dithiothreitol and 0.01% (v/v) Brij 35, NEBuffer, New England BioLa ...

Abl kinase [2] = conditions: in words
Abl kinase [3] = assay: Validation of BacKin assay: fluorescence of kinase-treated displaying cells by flow cytometry; assay type: biochemical, Human; conditions: after 30 min incubation with Abl kinase; 585/42 nm

IC50 (Abl TK; 50 µM ATP): 21.5 ± 2.64 µM
IC50 (Abl TK; 500 µM ATP): 37.5 ± 3.95 µM
Compound: CC[C@H](C)[C@H](NC(=O)[C@H](C)NC(=O)[C@@H](N)CCC(=O)O)C(=O)N[C@@H](Cc1ccc(O)cc1)C(=O)N[C@@H](C)C(=O)N[C@@H](C)C(=O)N1CCC[C@H]1C(=O)N[C@@H](Cc1ccccc1)C(=O)N[C@@H](C)C(=O)N[C@@H](CCCCN)C(=O)N[C@@H](CCCCN)C(=O)N[C@@H](CCCCN)C(=O)O [abltide] (H-EAIYAAPFAKKK-OH)

Compound: Abl TK: Human active Abl (121 kDa, 1067 U/mg, Merck Millipore)
specific activity [1]: 1067 U/mg

Compound: EAIFAAPYAKKK [[Y4F,F8Y]]
inhibition of kinase activity / competition (Abl TK; in words, peptide concentrations ranging from 64 to 0.25 µM, 0.5 U/mL kinase, 30 min, analogue tested with 500 µM ATP, average of two replicates): did not inhibit kinase activity in the concentration range tested
phosphorylation by Abl kinase (Abl kinase [2]): is not phosphorylated by Abl kinase

Compound: abltide-displaying cells: E. coli MC1061 displaying KKGEAIYAAPFA fused via spacer GGQSGQ to the N-terminus of the eCPX display scaffold
percentage of fluorescent cells (Abl kinase [3]): ~96%
